This note sets out measurements from ChEMBL document CHEMBL1921772, “Crassocolides N-P, three cembranoids from the Formosan soft coral Sarcophyton crassocaule” (Bioorg Med Chem Lett, 2011).

Type in all cases: functional, cell-based
The subject of one experiment is KB. The experiment can be described thus: Cytotoxicity against human KB cells after 1 to 11 days by MTT assay. A general note: Tetrazolium assays rely on reduction of a dye to a coloured formazan, in cell work by metabolically active cells.
The subject of a further experiment is Daoy. Description: Cytotoxicity against human DaOY cells after 1 to 11 days by MTT assay.
The subject of another experiment is HeLa. Description: Cytotoxicity against human HeLa cells after 1 to 11 days by MTT assay.

Usually IC50 stands for the midpoint of a concentration-inhibition curve.

In brackets after ≈: the same amount, converted by molar mass.

`C=C1C(=O)O[C@H]2/C=C(\C)CC/C=C(\C)CC[C@H](OC(C)=O)/C(C)=C\C[C@@H]12` [CRASSOCOLIDE P]: the values for the IC50 in the experiment with KB, in the experiment with Daoy and in the experiment with HeLa were greater than 20 µg/mL, 1.9 µg/mL (≈ 5.3 µM) and 10.8 µg/mL (≈ 30.1 µM), respectively.

As to `C=C1C(=O)O[C@H]2/C=C(\C)CC/C=C(\C)CCC(=O)/C(C)=C\C[C@@H]12` [CRASSOCOLIDE O], the IC50 is greater than 20 µg/mL in the experiment on KB, 4.5 µg/mL (≈ 14.3 µM) with Daoy and greater than 20 µg/mL with HeLa.

Regarding `C=C1C(=O)O[C@H]2/C=C(\C)CC/C=C(\C)CCC(=O)[C@]3(C)O[C@@H]3C[C@@H]12` [CRASSOCOLIDE N], the IC50 was determined as 4.7 µg/mL (≈ 14.2 µM) in the experiment on KB, 2.8 µg/mL (≈ 8.47 µM) in the experiment on Daoy and 4.7 µg/mL (≈ 14.2 µM) with HeLa.

As for `CO[C@@]12[C@H](COC(N)=O)C3=C(C(=O)C(C)=C(N)C3=O)N1C[C@@H]1N[C@@H]12` [MITOMYCIN], the IC50 with KB was found to be 0.08 µg/mL (≈ 0.239 µM); in the experiment with Daoy it was 0.05 µg/mL (≈ 0.15 µM); with HeLa it was 0.06 µg/mL (≈ 0.179 µM).
